Patent publication US12403114B2, “Cannabinoid acid ester compositions and uses thereof” (EPM (IP), INC., priority 2019, dated 2025)

Assays:
[1] = test system: LLCPK1 cells; assay: Cellular lipid accumulation test in renal proximal tubule cells; assay type: cell-based; settings: 3.125-25 μM; cells exposed to a mixture of oleate and palmitate, 24 hr (FIG. 31)
Protocol: To test whether CBDA-ME has the ability to reduce lipid accumulation in renal proximal tubule cells, we have utilized an in vitro model of fat accumulation in LLCPK1 cells. Briefly, LLCPK1 cells were maintained at 37° C. in 5% CO2 in DMEM medium supplemented with 10% FCS, 2 mM 1-glutamine, 1 mM sodium pyruvate, 100 U/mL penicillin and […] streptomycin. Free fatty acids (2:1, molar ratio, oleic and palmitic acids) were mixed with bovine serum albumin (BSA). Cells were incubated with fatty acid-BSA complex in FCS-free culture medium at 0.3 mM final concentration of fatty acid and 1% of BSA. Control cell cultures were incubated with medium containing the vehicle. Compounds were tested in a range of concentrations (as detailed in the results section) in the presence/absence of fatty acids. After 24 hr of incubation with the compounds, the cells were washed, incubated with 1 μg/mL mixture of Nile-Red/Hoechst solution for 15 mins at 37° C. protected from light. Fluorescence was measured by the Cytation-3 plate reader at ex:488 nm/em:550 for Nile-Red and Hoechst, respectively. Results were normalized to total protein levels of each well, and presented as a change in the accumulation of lipids in comparison with Vehicle-treated group.

[2] = test system: weight gain in rats with an adipogenic diet; assay: Rat model of diet induced obesity (Teklad TD95217 adipogenic diet), weight gain; assay type: in vivo; settings: 150 uL of 3.5 mg/ml i.p., each animal its own control (FIG. 33)
Protocol: The study was designed as a N-of-1 study, where each animal served as its own control. The advantage of this model is the elimination of the need for a control group and reduction of […] variation. The study was performed in two phases: a short-term study with one week exposure to EPM-301 and a long-term study with 8 weeks exposure to EPM-301 (injected daily). In the long-term study, a control group was used including animals fed the adipogenic diet.
EPM-301 was dissolved in 1:1:18 EtOH:cremophor:seline solution to final concentration of 3.5 mg/ml.
In the short-term experiment, all rats were injected i.p. 150 uL in the first day, and after a 3-day break were then injected i.p. every day for 4 days. In the long-term experiment i.p. injections of 150 uL were carried out daily for 8 weeks. Weight was measured at weeks 0, 1, 3, and 9 after injections.
The rats were weighed on a digital weight weekly in the short-term study for 3 weeks. The rats were weighed on weeks 0, 1, 3, and 9 in the long-term study.
Rats were allowed to acclimatize for 1 week, and then their weights were assessed using a digital weighing machine. Animals are fed an adipogenic diet for two weeks before starting injections.
The weights of the animals were compared at each time point and the change over time calculated. ANOVA was used to determine whether there was a significant change. […]

[3] = target: T1, glucose transporter 2 (GLUT2) (Homo sapiens, UniProt P11168); assay: 2-NBDG glucose uptake in transfected HEK293t cells; assay type: cell-based; settings: 50-0.1 μM tested
T1 construct: expressed in transfected cells; host or cells: HEK293t
T1 sequence (P11168 1-524): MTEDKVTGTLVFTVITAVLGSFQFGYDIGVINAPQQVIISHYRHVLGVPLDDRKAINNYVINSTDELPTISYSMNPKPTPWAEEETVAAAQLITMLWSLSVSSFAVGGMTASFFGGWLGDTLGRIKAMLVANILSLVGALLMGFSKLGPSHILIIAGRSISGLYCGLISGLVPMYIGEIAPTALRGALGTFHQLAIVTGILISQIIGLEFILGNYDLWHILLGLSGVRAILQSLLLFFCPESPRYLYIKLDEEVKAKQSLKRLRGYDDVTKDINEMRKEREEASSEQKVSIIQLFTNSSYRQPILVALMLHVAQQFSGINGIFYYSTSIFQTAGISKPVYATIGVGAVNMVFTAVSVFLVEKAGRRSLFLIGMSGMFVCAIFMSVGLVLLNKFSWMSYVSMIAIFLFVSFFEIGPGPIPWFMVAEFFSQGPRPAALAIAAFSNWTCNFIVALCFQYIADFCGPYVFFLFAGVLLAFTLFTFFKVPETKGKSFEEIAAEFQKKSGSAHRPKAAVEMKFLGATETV
Protocol: In vitro assays for measuring glucose uptake were designed to assess whether EPM-301 and EPM-302 compounds are capable of inhibiting or increasing glucose uptake via glucose transporters (GLUTs).
Transfected HEK293t cells, which express the glucose transporter 2 (GLUT2), were cultured in a 96 well plate and maintained at 37° C. in 5% CO2 in DMEM medium supplemented with 10% FCS, 2 mM 1-glutamine, 1 mM sodium pyruvate, 100 U/mL penicillin, and […] streptomycin for 24 h. The medium was then washed with a choline chloride Na^+-free buffer (CCB), in which only GLUTs (and not the sodium/glucose transporters [SGLTs]) were active. The wells were then added with CCB/CCB+2-NBDG (a fluorescent derivative of glucose). Compounds were tested in a range of concentrations for their ability to inhibit/increase 2-NBDG uptake into the cells. After 1.5 h incubation, cells were washed with CCB and incubated with 1 μg/μL of Hoechst for 15 mins at 37° C. and protected from light. Fluorescence was measured by the Cytation-3 plate reader at ex:485 nm/em:528 nm and ex:350 nm/em:461 nm for 2-NBDG Hoechst, respectively. Results of the 2-NBDG levels were normalized to Hoechst levels of each well, and presented as a change in the uptake of 2-NBDG in comparison with Vehicle-treated group.
Vehicle solution (choline chloride buffer), EPM-301 (50-0.1 μM), and EPM-302 (50-0.1 μM) were used for the experiments.
Values are expressed as mean±SEM. Unpaired two-tailed student's t-test was used to determine the differences between the groups. Significance was set at p<0.05. *versus vehicle; #versus control.

C=C(C)[C@@H]1CCC(C)=CC1c1c(O)cc(CCCCC)c(C(=O)OC)c1O (stereo partly shown) [EPM-301, cannabidiolic acid methyl ester]
fat accumulation in kidney cells (lipotoxicity) [1]: prevent
weight gain, short-term study [2]: halting
concentration at which the effect on glucose transport was observed [3]: 50 µM
glucose uptake (2-NBDG) in HEK293 cells ([3]; 1.5 h incubation, versus vehicle (FIG. 36A, 36B)): significantly reduce
